ChEMBL document CHEMBL5143570, “Development of naringenin-O-carbamate derivatives as multi-target-directed liagnds for the treatment of Alzheimer's disease” (Bioorg Med Chem Lett, 2022)
Calls of active or inactive are those of the source. The calls are words filed in the database; no cut-off is given here.

Experiments:
HT-22 [1] = experiment: Effect on tau protein expression in pRK5-GFP-Tau plasmid transfected mouse HT-22 cells assessed as fluorescence intensity by measuring decrease in GFP level incubated for 24 hrs by western blot analysis; type: functional, cell-based; details: dose 5-20 µM, DDE = dose-dependent effect
[2] = Effect on APP protein expression in pEGFP-N1-APP plasmid transfected mouse HT-22 cells assessed as decrease in fluorescence intensity at 20 uM incubated for 24 hrs by fluorescence microscopic analysis (reference value: 30.7); type: functional
[3] = Metal chelating activity assessed as Cu2+-compound complex formation by measuring maximum absorption wavelength shift in the presence of CuCl2 by UV-visible spectrometric analysis
[4] = Effect on tau protein expression in pRK5-GFP-Tau P301L plasmid transfected mouse HT-22 cells assessed as reduction in fluorescence intensity at 20 uM by fluorescence microscopic analysis (reference value: 35.0); type: functional
Butyrylcholinesterase = Butyrylcholinesterase (Rattus norvegicus, UniProt Q9JKC1); experiment: Inhibition of rat serum Butyrylcholine esterase using butyrylthiocholine as substrate incubated for 15 mins by DTNB reagent based Ellman's method; type: cell-free
L02 [5] = experiment: Cytotoxicity against human L02 cells assessed as decrease in cell viability at 40 uM by MTT assay relative to control; type: toxicity, cell-based; details: l02, 40 µM
[6] = Inhibition of LPS-induced TNFalpha production in mouse BV-2 cells assessed as TNFalpha level at 10 uM by ELISA analysis; type: functional
PC-12 [7] = experiment: Cytotoxicity against rat PC-12 cells assessed as reduction in cell viability measured upto 40 uM incubated for 72 hrs by MTT assay; type: toxicity, cell-based; details: pc-12, 72 h
[8] = Inhibition of LPS-induced TNFalpha production in mouse BV-2 cells assessed as TNFalpha level at 5 uM by ELISA analysis; type: functional
[9] = Effect on tau protein expression in pRK5-GFP-Tau plasmid transfected mouse HT-22 cells assessed as reduction in fluorescence intensity at 5 uM incubated for 24 hrs by fluorescence microscopic analysis (reference value: 36.8); type: functional
Homo sapiens = organism: Homo sapiens; experiment: Selectivity index, ratio of IC50 for inhibition of human serum BuChE to IC50 for inhibition of human erythrocyte AChE
[10] = Effect on APP protein expression in pEGFP-N1-APP plasmid transfected mouse HT-22 cells assessed as decrease in fluorescence intensity at 5 uM incubated for 24 hrs by fluorescence microscopic analysis (reference value: 30.7); type: functional
[11] = Cytotoxicity against mouse HT-22 cells assessed as reduction in cell viability by MTT assay; type: toxicity, cell-based
BV-2 = experiment: Cytotoxicity against mouse BV-2 cells assessed as increase in cell viability at 5 to 10 uM by MTT assay; type: toxicity, cell-based; details: bv-2, 10 µM, dose 5-10 µM
[12] = Effect on tau protein expression in pRK5-GFP-Tau plasmid transfected mouse HT-22 cells assessed as reduction in fluorescence intensity at 20 uM incubated for 24 hrs by fluorescence microscopic analysis (reference value: 36.8); type: functional
[13] = Effect on tau protein expression in pRK5-GFP-Tau plasmid transfected mouse HT-22 cells assessed as reduction in fluorescence intensity at 10 uM incubated for 24 hrs by fluorescence microscopic analysis (reference value: 36.8); type: functional
Rattus norvegicus = organism: Rattus norvegicus; experiment: Selectivity index, ratio of IC50 for inhibition of rat serum butyrylcholine esterase to IC50 for inhibition of rat cortex AChE
[14] = Permeability of compound at 100 ug/mL by PAMPA-BBB assay
L02 [15] = experiment: Hepatoprotective activity against H2O2-induced cytotoxicity in human L02 cells assessed as increase in cell viability at 20 uM by MTT assay; type: functional
[16] = molecular target: Amyloid-beta precursor protein (Homo sapiens) (UniProt P05067); experiment: Inhibition of amyloid beta (1 to 42 ) (unknown origin) self-induced aggregation at 25 uM by thioflavin-T fluorescence method relative to control
L02 [17] = experiment: Hepatoprotective activity against H2O2-induced cytotoxicity in human L02 cells assessed as increase in cell viability at 10 uM by MTT assay; type: functional
[18] = Inhibition of LPS-induced NO production in mouse BV-2 cells at 5 uM by Griess reaction method relative to control; type: functional
PC-12 [19] = experiment: Neuroprotective activity against H2O2-induced cytotoxicity in rat PC-12 cells assessed as increase in cell viability at 10 uM by MTT assay relative to control; type: functional
Cholinesterase = Cholinesterase (Homo sapiens, UniProt P06276); experiment: Inhibition of human serum BuChE using butyrylthiocholine as substrate incubated for 15 mins by DTNB reagent based Ellman's method; type: cell-free
[20] = Inhibition of LPS-induced NO production in mouse BV-2 cells at 10 uM by Griess reaction method relative to control; type: functional
[21] = molecular target: Amyloid-beta precursor protein (Homo sapiens) (UniProt P05067); experiment: Inhibition of amyloid beta (1 to 42) (unknown origin) self-induced fibril formation at 25 uM incubated for 24 hrs by transmission electron microscopic analysis
[22] = Antioxidant activity assessed as trolox equivalent of ORAC radical scavenging activity by ORAC-FL assay; type: functional
PC-12 [23] = experiment: Neuroprotective activity against H2O2-induced cytotoxicity in rat PC-12 cells assessed as increase in cell viability at 5 uM by MTT assay relative to control; type: functional
[24] = Metal chelating activity assessed as Al3+-compound complex formation by measuring maximum absorption wavelength shift in the presence of AlCl3 by UV-visible spectrometric analysis
HT-22 [25] = experiment: Effect on APP protein expression in pEGFP-N1-APP plasmid transfected mouse HT-22 cells assessed as fluorescence intensity by measuring decrease in GFP level incubated for 24 hrs by western blot analysis; type: functional, cell-based; details: dose 5-20 µM, DDE = dose-dependent effect
[26] = Effect on tau protein expression in pRK5-GFP-Tau P301L plasmid transfected mouse HT-22 cells assessed as reduction in fluorescence intensity at 5 uM by fluorescence microscopic analysis (reference value: 35.0); type: functional
[27] = Inhibition of LPS-induced TNFalpha production in mouse BV-2 cells assessed as TNFalpha level at 5 uM by ELISA analysis relative to control; type: functional
L02 [28] = experiment: Cytotoxicity against human L02 cells assessed as decrease in cell viability measured upto 20 uM by MTT assay; type: toxicity, cell-based; details: l02, 20 µM
[29] = Effect on tau protein expression in pRK5-GFP-Tau P301L plasmid transfected mouse HT-22 cells assessed as reduction in fluorescence intensity at 10 uM by fluorescence microscopic analysis (reference value: 35.0); type: functional
[30] = Effect on APP protein expression in pEGFP-N1-APP plasmid transfected mouse HT-22 cells assessed as decrease in fluorescence intensity at 10 uM incubated for 24 hrs by fluorescence microscopic analysis (reference value: 30.7); type: functional
HT-22 [31] = experiment: Effect on tau protein expression in pRK5-GFP-Tau P301L plasmid transfected mouse HT-22 cells assessed as fluorescence intensity by measuring decrease in GFP level by western blot analysis; type: functional, cell-based; details: dose 5-20 µM, DDE = dose-dependent effect
[32] = molecular target: Amyloid-beta precursor protein (Homo sapiens) (UniProt P05067); experiment: Inhibition of Cu2+-induced amyloid beta (1 to 42) (unknown origin) aggregation at 25 uM by thioflavin-T fluorescence method relative to control

Amyloid-beta precursor protein (Homo sapiens), sequence (P05067 whole entry): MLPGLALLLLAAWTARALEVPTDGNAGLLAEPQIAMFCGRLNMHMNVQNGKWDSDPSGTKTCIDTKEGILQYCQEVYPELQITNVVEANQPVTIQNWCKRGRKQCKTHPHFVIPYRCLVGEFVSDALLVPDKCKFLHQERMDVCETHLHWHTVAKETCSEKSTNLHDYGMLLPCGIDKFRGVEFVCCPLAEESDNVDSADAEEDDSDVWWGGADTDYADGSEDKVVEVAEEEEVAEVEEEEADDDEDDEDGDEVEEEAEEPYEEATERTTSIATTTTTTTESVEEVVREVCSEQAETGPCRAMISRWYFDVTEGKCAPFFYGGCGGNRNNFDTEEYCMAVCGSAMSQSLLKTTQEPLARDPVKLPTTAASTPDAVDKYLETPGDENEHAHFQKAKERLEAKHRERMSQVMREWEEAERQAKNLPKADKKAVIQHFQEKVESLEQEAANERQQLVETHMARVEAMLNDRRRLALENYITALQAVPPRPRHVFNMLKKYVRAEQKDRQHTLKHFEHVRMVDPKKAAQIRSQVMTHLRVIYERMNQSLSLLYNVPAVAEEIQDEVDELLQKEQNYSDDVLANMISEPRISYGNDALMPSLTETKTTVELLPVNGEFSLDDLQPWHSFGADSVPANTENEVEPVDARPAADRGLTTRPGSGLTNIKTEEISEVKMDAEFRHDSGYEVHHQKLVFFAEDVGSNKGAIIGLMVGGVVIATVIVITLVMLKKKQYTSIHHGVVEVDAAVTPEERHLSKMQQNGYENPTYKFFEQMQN
Cholinesterase, sequence (P06276 whole entry): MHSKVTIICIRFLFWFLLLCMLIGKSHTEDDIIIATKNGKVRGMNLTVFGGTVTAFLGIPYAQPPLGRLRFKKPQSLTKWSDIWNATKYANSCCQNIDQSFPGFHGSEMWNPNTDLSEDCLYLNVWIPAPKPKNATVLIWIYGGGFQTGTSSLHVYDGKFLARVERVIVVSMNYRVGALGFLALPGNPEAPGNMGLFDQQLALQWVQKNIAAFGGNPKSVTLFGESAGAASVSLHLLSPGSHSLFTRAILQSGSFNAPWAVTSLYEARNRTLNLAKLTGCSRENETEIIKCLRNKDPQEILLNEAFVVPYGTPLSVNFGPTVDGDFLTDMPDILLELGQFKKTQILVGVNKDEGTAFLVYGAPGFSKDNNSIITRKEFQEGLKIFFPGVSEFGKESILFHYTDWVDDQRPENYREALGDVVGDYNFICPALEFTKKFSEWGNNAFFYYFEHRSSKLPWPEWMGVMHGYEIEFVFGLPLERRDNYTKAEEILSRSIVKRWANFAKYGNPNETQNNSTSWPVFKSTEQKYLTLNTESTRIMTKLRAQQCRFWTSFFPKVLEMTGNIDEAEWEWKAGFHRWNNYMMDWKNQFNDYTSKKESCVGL
Butyrylcholinesterase, sequence (Q9JKC1 whole entry): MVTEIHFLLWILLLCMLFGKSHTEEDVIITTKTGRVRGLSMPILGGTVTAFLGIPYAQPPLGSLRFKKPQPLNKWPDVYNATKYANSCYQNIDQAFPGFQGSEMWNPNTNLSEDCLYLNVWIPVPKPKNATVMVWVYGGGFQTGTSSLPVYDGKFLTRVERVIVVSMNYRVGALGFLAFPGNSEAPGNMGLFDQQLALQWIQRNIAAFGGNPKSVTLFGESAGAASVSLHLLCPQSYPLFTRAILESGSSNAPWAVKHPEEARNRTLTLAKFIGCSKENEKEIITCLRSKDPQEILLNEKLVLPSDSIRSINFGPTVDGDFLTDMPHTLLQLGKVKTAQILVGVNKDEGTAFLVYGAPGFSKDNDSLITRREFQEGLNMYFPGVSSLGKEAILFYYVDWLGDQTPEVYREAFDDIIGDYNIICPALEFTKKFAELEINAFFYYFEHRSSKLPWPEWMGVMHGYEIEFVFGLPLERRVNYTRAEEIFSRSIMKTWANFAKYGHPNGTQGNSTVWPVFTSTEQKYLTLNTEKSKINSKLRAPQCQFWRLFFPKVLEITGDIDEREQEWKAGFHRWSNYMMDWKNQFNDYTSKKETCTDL

CCN(C)C(=O)Oc1ccc(C2CC(=O)c3c(O)cc(OC(=O)N(C)CC)cc3O2)cc1 (configuration not stated)
Activity (HT-22 [1]): Dde
Flu intensity [2]: 15.5
Activity [3]: Active
Flu intensity [4]: 3.88
IC50 (Butyrylcholinesterase): 30.6 µM
Activity (L02 [5]): 73.2%
Activity [6]: 532 pg/mL
Activity (PC-12 [7]): Non-Toxic
Activity [8]: 848 pg/mL
Flu intensity [9]: 25.9
Ratio IC50 (Homo sapiens): 2.1
Flu intensity [10]: 21.9
IC50 [11]: 289 µM
Activity (BV-2): Non-Toxic
Flu intensity [12]: 6.48
Flu intensity [13]: 19
Ratio IC50 (Rattus norvegicus): 4.9
Papp at 100 ug/mL [14]: 16.8 ×10⁻⁶ cm/s
Activity (L02 [15]): 77.3%
inhibition [16]: 60.9%
Activity (L02 [17]): 68.7%
inhibition at 5 µM [18]: 41.7%
Activity (PC-12 [19]): 70.2%
IC50 (Cholinesterase): 20.3 µM
inhibition at 10 µM [20]: 55.6%
inhibition [21]: Active
Activity [22]: 1
Activity (PC-12 [23]): 63.8%
Activity [24]: Active
Activity (HT-22 [25]): Dde
Flu intensity [26]: 18.4
inhibition at 5 µM [27]: 50.1%
Activity (L02 [28]): Non-Toxic
Flu intensity [29]: 9.28
Flu intensity [30]: 15.5
Activity (HT-22 [31]): Dde
inhibition [32]: 66.5%
